This is an account of results in patent publication US8557816B2, “Aurora kinase modulators and method of use” (Amgen Inc., priority 2007, dated 2013).

One test has as its target T1, AuroraA-TPX2 (Homo sapiens, UniProt O14965).
T1 construct: 20 μL of AuroraA-TPX2 KD GST for a final volume of about 41 μL; GST
T1 sequence (O14965 133-383 limits assumed): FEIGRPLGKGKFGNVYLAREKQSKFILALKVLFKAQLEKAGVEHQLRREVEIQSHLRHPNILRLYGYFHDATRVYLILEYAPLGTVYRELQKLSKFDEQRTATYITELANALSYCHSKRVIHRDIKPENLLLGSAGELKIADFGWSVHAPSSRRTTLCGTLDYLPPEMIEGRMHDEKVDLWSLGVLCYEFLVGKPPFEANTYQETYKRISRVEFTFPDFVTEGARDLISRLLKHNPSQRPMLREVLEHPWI
T1 sequence (Q9ULW0 1-43 partner limits assumed): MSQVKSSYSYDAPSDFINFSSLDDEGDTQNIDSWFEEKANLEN
The test can be described thus: AuroraA-TPX2 Homogeneous Time Resolved Fluorescent (HTRF) kinase assay. The class given is biochemical. Particulars: average; read-out: AurA_IC50_IP (uM Avg). The procedure:
AuroraA-TPX2-Homogeneous Time Resolved Fluorescent (HTRF) Kinase Assay:
The Aurora-A HTRF assay begins with Aurora-A in the presence of ATP phosphorylating the biotinylated peptide PLK. The reaction incubates for about 120 min. Detection reagents are added to quench the reaction. These agents stop the reaction by diluting out the enzyme and chelating the metals due to the presence of EDTA. After addition, the assay is incubated overnight to allow the detection reagents to equilibrate.
The AuroraA HTRF assay comprises 1 μL of compound in 100% DMSO, 20 μL of ATP and biotinylated PLK, and 20 μL of AuroraA-TPX2 KD GST for a final volume of about 41 μL. The final concentration of PLK is about 1 μM. […] Buffer conditions are as follows: 60 mM HEPES pH 7.5, 25 mM NaCl, 10 mM MgCl, 2 mM DTT, 0.05% BSA.
The assay is quenched and stopped with 160 μL of detection reagent. Detection reagents are as follows: Buffer made of 50 mM Tris, pH 7.5, 100 mM NaCl, 3 mM EDTA, 0.05% BSA, 0.1% Tween20. Added to this buffer prior to reading is Steptavidin allophycocyanin (SA-APC) at a final conc in the assay of 0.0005 mg/mL, and europilated anti-phosphoPLK Ab (Eu-anti-PLK) at a final conc of 0.02 nM.
The assay plate is read in either a Discovery or a RubyStar. The eu-anti-PLK is excited at 320 nm and emits at 615 nm to excite the SA-APC which in turn emits at 655 nm.
(In general: Time-resolved FRET reads energy transfer from a long-lived donor to a nearby acceptor.)

For another test, the target named is T2, AuroraB (Homo sapiens, UniProt Q96GD4).
T2 construct: 20 μL of AuroraB FL H is for a final volume of 41 μL; His
T2 sequence (Q96GD4 whole entry): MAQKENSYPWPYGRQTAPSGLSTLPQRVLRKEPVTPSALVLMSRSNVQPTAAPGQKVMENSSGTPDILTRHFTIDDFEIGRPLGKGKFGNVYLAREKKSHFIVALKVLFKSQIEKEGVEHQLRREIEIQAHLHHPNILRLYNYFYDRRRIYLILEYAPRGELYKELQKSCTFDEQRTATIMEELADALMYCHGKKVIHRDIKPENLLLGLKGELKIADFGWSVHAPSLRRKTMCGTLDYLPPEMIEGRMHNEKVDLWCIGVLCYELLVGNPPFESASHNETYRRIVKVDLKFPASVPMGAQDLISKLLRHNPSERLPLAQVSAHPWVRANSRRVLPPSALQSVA
The test can be described thus: AuroraB Homogeneous Time Resolved Fluorescent (HTRF) kinase assay. Particulars: average; read-out: AurB_IC50_IP (uM Avg). The class given is biochemical. The procedure:
AuroraB-Homogeneous Time Resolved Fluorescent (HTRF) Kinase Assay:
The AuroraB HTRF assay begins with AuroraB in the presence of ATP phosphorylating the biotinylated peptide Histone H3. The reaction incubates for about 90 min. the reaction is quenched by addition of detection reagents, which stop the reaction by diluting out the enzyme and chelating the metals due to the presence of EDTA. After addition, the assay is incubated for about 60 min to allow detection reagents to equilibrate.
The AuroraB HTRF assay comprises 1 μL of compound in 100% DMSO, 20 μL of ATP and biotinylated Histone H3, and 20 μL of AuroraB FL H is for a final volume of 41 μL. The final concentration of Histone H3 is 0.1 μM. […] Buffer conditions are as follows: 50 mM HEPES pH 7.5, 5 mM NaCl, 0.5 mM MgCl, 0.5 mM MnCl, 2 mM DTT, 0.05% BSA.
The assay is quenched and stopped with 160 μL of detection reagent. Detection reagents are as follows: Buffer made of 50 mM Tris, pH 7.5, 100 mM NaCl, 3 mM EDTA, 0.05% BSA, 0.1% Tween20. Added to this buffer prior to reading is Steptavidin allophycocyanin (SA-APC) at a final conc in the assay of 0.001 mg/mL, and europilated anti-phosphoHistoneH3 Ab (Eu-anti-HisH3) at a final conc of 0.064 nM.
The assay plate is read in either a Discovery or a RubyStar. The eu-anti-HisH3 is excited at 320 nm and emits at 615 nm to excite the SA-APC which in turn emits at 655 nm.

`COc1cc2nccc(Sc3ccc(Nc4nnc(-c5ccc(Cl)cc5)c5ccccc45)cc3)c2[nH]c1=O` [Example 406, 8-(4-(4-(4-Chlorophenyl)phthalazin-1-ylamino)phenylthio)-3-methoxy-1,5-naphthyridin-2(1H)-one]: the IC50 at AuroraA-TPX2 was found to be 0.034 µM; on AuroraB, 0.186 µM.
For `COc1cnc2c(Oc3ccc(Nc4nnc(-c5cc(CO)cs5)c5ccccc45)cc3)ccnc2c1` [Example 407, (5-(4-(4-(7-Methoxy-1,5-naphthyridin-4-yloxy)phenylamino)phthalazin-1-yl)thiophen-3-yl)methanol] the same measures were 0.016 µM and 0.004 µM.
Regarding `COc1cnc2c(Oc3ccc(Nc4nnc(-c5cc(CF)cs5)c5ccccc45)cc3)ccnc2c1` [Example 408, 4-(4-(Fluoromethyl)thiophen-2-yl)-N-(4-(7-methoxy-1,5-naphthyridin-4-yloxy)phenyl)phthalazin-1-amine], the results for the IC50 on AuroraA-TPX2 and at AuroraB were 0.024 µM and 0.009 µM, respectively.
The matching figures for `Oc1cnc2c(Oc3ccc(Nc4nnc(-c5ccc(Cl)cc5)c5ccccc45)cc3)ccnc2c1` [Example 409, 8-(4-(4-(4-Chlorophenyl)phthalazin-1-ylamino)phenoxy)-1,5-naphthyridin-3-ol]: 0.02 µM and 0.005 µM.
The matching figures for `COc1cnc2c([S+]([O-])c3ccc(Nc4nnc(-c5ccc(F)cc5)c5ccccc45)cc3)ccnc2c1` (centres unmarked) [Example 410, 4-(4-fluorophenyl)-N-(4-(7-methoxy-1,5-naphthyridin-4-ylsulfinyl)phenyl)phthalazin-1-amine]: 0.532 µM and 0.645 µM.
On to `CCc1cc(-c2ccccc2)nnc1Nc1ccc(Oc2ccnc3cc(C(N)=O)ccc23)cc1` [compound 49, 4-((4-((4-ethyl-6-phenyl-3-pyridazinyl)amino)phenyl)oxy)-7-quinolinecarboxamide], for which the IC50 at AuroraA-TPX2 worked out at 0.021 µM; at AuroraB, 0.001 µM.
Turning to `COc1cnc2c(N(C)c3ccc(Nc4nnc(-c5ccccc5)c5ccccc45)cc3)ccnc2c1` [compound 51, N-methyl-N-(7-(methyloxy)-1,5-naphthyridin-4-yl)-N′-(4-phenyl-1-phthalazinyl)-1,4-benzenediamine], the IC50 at AuroraA-TPX2 was 0.86 µM; on AuroraB, 0.023 µM.
The matching figures for `COc1cc2nccc(Oc3ccc(Nc4nnc(-c5ccc(C)c(C)c5)c5ccccc45)cc3)c2cc1OC` [compound 74, N-(4-((6,7-bis(methyloxy)-4-quinolinyl)oxy)phenyl)-4-(3,4-dimethylphenyl)-1-phthalazinamine]: 0.014 µM and 0.032 µM.
For `COc1cc2nccc(Oc3ccc(Nc4nnc(N5CCCCC5)c5ccccc45)cc3)c2cc1OC` [compound 75, N-(4-((6,7-bis(methyloxy)-4-quinolinyl)oxy)phenyl)-4-(1-piperidinyl)-1-phthalazinamine] the same measures were 0.023 µM and 0.042 µM.
In the case of `COc1cc2nccc(Oc3ccc(Nc4nnc(-c5cccs5)c5ccccc45)cc3F)c2cc1OC` [compound 76, N-(4-((6,7-bis(methyloxy)-4-quinolinyl)oxy)-3-fluorophenyl)-4-(2-thienyl)-1-phthalazinamine], the values for the IC50 at AuroraA-TPX2 and on AuroraB were 0.034 µM and 0.106 µM, respectively.
For `COc1cc2nccc(Oc3ccc(Nc4nnc(-n5nc(C)cc5C)c5ccccc45)cc3F)c2cc1OC` [compound 77, N-(4-((6,7-bis(methyloxy)-4-quinolinyl)oxy)-3-fluorophenyl)-4-(3,5-dimethyl-1H-pyrazol-1-yl)-1-phthalazinamine] the same measures were 0.701 µM and 0.079 µM.
The matching figures for `NC(=O)c1cc2nccc(Oc3ccc(Nc4nnc(-c5ccccc5)c5ccccc45)cc3F)c2s1` [compound 78, 7-((2-fluoro-4-((4-phenyl-1-phthalazinyl)amino)phenyl)oxy)thieno-[3,2-b]pyridine-2-carboxamide]: 0.022 µM and 0.004 µM.
For `COc1cnc2c(Oc3ccc(Nc4nnc(-c5ccccc5)c5ccccc45)cc3)ccnc2c1` [compound 79, N-(4-((7-(methyloxy)-1,5-naphthyridin-4-yl)oxy)phenyl)-4-phenyl-1-phthalazinamine] the same measures were 0.028 µM and 0.008 µM.
Regarding `COc1cnc2c(Oc3ccc(Nc4nnc(-c5cc(F)ccc5OC)c5ccccc45)cc3)ccnc2c1` [compound 80, 4-(5-fluoro-2-(methyloxy)phenyl)-N-(4-((7-(methyloxy)-1,5-naphthyridin-4-yl)oxy)phenyl)-1-phthalazinamine], the IC50 stood at 0.414 µM on AuroraA-TPX2 and 0.041 µM on AuroraB.
As for `COc1cnc2c(Oc3ccc(Nc4nnc(-c5ccc(C)cc5)c5ccccc45)cc3)ccnc2c1` [compound 81, N-(4-((7-(methyloxy)-1,5-naphthyridin-4-yl)oxy)phenyl)-4-(4-methylphenyl)-1-phthalazinamine], the IC50 stood at 0.012 µM on AuroraA-TPX2 and 0.006 µM on AuroraB.
As to `COc1cnc2c(Oc3ccc(Nc4nnc(-c5nc(C)cs5)c5ccccc45)cc3)ccnc2c1` [compound 82, N-(4-((7-(methyloxy)-1,5-naphthyridin-4-yl)oxy)phenyl)-4-(4-methyl-1,3-thiazol-2-yl)-1-phthalazinamine], the IC50 on AuroraA-TPX2 is 0.013 µM; on AuroraB it was 0.006 µM.
For `CCc1cc(-c2ccccc2)nnc1Nc1ccc(Oc2ccnc3cc(OC)cnc23)nc1` [compound 83, 4-ethyl-N-(6-((7-(methyloxy)-1,5-naphthyridin-4-yl)oxy)-3-pyridinyl)-6-phenyl-3-pyridazinamine] the same measures were 0.08 µM and 0.01 µM.
Consider `COc1cnc2c(Oc3cnc(Nc4nnc(-c5ccccc5)c5ccccc45)nc3)ccnc2c1` [compound 84, N-(5-((7-(methyloxy)-1,5-naphthyridin-4-yl)oxy)-2-pyrimidinyl)-4-phenyl-1-phthalazinamine], for which the figures for the IC50 at AuroraA-TPX2 and at AuroraB were 0.16 µM and 0.002 µM, respectively.
Consider `COc1cnc2c(Oc3ccc(Nc4nnc(N5CCN(C)CC5)c5ccccc45)cc3)ccnc2c1` [compound 85, N-(4-((7-(methyloxy)-1,5-naphthyridin-4-yl)oxy)phenyl)-4-(4-methyl-1-piperazinyl)-1-phthalazinamine], for which the IC50 on AuroraA-TPX2 is 0.066 µM; at AuroraB, 0.004 µM.
The matching figures for `Cc1csc(-c2nnc(Nc3ccc(Oc4ccnc5cc(C#N)ccc45)cc3)c3ccccc23)n1` [compound 86, 4-((4-((4-(4-methyl-1,3-thiazol-2-yl)-1-phthalazinyl)amino)phenyl)oxy)-7-quinolinecarbonitrile]: 0.031 µM and 0.014 µM.
For `COc1ccc(F)cc1-c1nnc(Nc2ccc(Oc3ccnc4cc(C#N)ccc34)cc2)c2ccccc12` [compound 87, 4-((4-((4-(5-fluoro-2-(methyloxy)phenyl)-1-phthalazinyl)amino)phenyl)oxy)-7-quinolinecarbonitrile] the same measures were 0.142 µM and 0.013 µM.
The matching figures for `Cc1ccc(-c2nnc(Nc3ccc(Oc4ccnc5cc(C#N)ccc45)cc3)c3ccccc23)cc1` [compound 88, 4-((4-((4-(4-methylphenyl)-1-phthalazinyl)amino)phenyl)oxy)-7-quinolinecarbonitrile]: 0.006 µM and 0.003 µM.
